The supplement of paper PMC10307832

Legend:
Experiment in all cases: relative viability (nuclei count vs DMSO), 5 days (fraction); higher = more cells survive
[1] = system: NCI-H2009
Method in brief: (§1)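 Each reported value is a median over duplicate plates. It expresses relative viability: treated-well nuclei count divided by vehicle-well nuclei count. Lung cancer cell lines in 1536-well plates were dosed by pin tool a day after seeding, alone with one drug or with a fixed anchor-drug dose plus five library-drug doses (not always all listed) in √10 steps, and nuclei were counted after 5 days.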

[2] = system: A-427
Method in brief: as §1

[3] = system: NCI-H1437
Method in brief: as §1

[4] = system: HOP-62
Method in brief: as §1

[5] = system: HCC-827
Method in brief: as §1

[6] = system: NCI-H727
Method in brief: as §1

[7] = system: NCI-H522
Method in brief: as §1

[8] = system: SW 1573
Method in brief: as §1

[9] = system: NCI-H460
Method in brief: as §1

[10] = system: EMC-BAC-2
Method in brief: as §1

[11] = system: NCI-H1915
Method in brief: as §1

[12] = system: NCI-H1395
Method in brief: as §1

[13] = system: NCI-H1792
Method in brief: as §1

[14] = system: NCI-H23
Method in brief: as §1

[15] = system: SK-LU-1
Method in brief: as §1

[16] = system: HCC-366
Method in brief: as §1

[17] = system: COR-L 105
Method in brief: as §1

[18] = system: HARA
Method in brief: as §1

[19] = system: LCLC-103H
Method in brief: as §1

[20] = system: NCI-H1755
Method in brief: as §1

Question: How did the relative viability ([1]; first compound 0.01 µM) turn out when `CCN(CC)CCCCNc1ncc2cc(-c3cc(OC)cc(OC)c3)c(NC(=O)NC(C)(C)C)nc2n1` + Nc1ncn([C@H]2C[C@H](O)[C@@H](CO)O2)c(=O)n1 [Decitabine] (partner 2 µM) was run?
Answer: The relative viability was 0.401.

Question: And the relative viability ([1]; first compound 0.03162 µM)?
Answer: The relative viability was 0.39.

Question: And the relative viability ([1]; first compound 0.1 µM)?
Answer: The relative viability was 0.35.

Question: What about the relative viability ([1]; first compound 0.3162 µM) of the same compound?
Answer: The relative viability was 0.387.

Question: What about the relative viability ([1]; first compound 1 µM) of the same compound?
Answer: Its relative viability is 0.365.

Question: What about the relative viability ([2]; first compound 0.01 µM) of the same compound?
Answer: The relative viability was 0.626.

Question: And the relative viability ([2]; first compound 0.03162 µM)?
Answer: The relative viability was 0.506.

Question: And the relative viability ([2]; first compound 0.1 µM)?
Answer: The relative viability was 0.518.

Question: What about the relative viability ([2]; first compound 0.3162 µM) of the same compound?
Answer: Its relative viability is 0.548.

Question: And the relative viability ([2]; first compound 1 µM)?
Answer: The relative viability was 0.524.

Question: And the relative viability ([3]; first compound 0.01 µM)?
Answer: The relative viability was 0.599.

Question: What about the relative viability ([3]; first compound 0.03162 µM) of the same compound?
Answer: Its relative viability is 0.541.

Question: What about the relative viability ([3]; first compound 0.1 µM) of the same compound?
Answer: Its relative viability is 0.592.

Question: What about the relative viability ([3]; first compound 0.3162 µM) of the same compound?
Answer: The relative viability was 0.58.

Question: And the relative viability ([3]; first compound 1 µM)?
Answer: The relative viability was 0.578.

Question: And the relative viability ([4]; first compound 0.01 µM)?
Answer: The relative viability was 0.243.

Question: And the relative viability ([4]; first compound 0.03162 µM)?
Answer: The relative viability was 0.207.

Question: And the relative viability ([4]; first compound 0.1 µM)?
Answer: Its relative viability is 0.208.

Question: What about the relative viability ([4]; first compound 0.3162 µM) of the same compound?
Answer: The relative viability was 0.207.

Question: And the relative viability ([4]; first compound 1 µM)?
Answer: The relative viability was 0.268.

Question: What about the relative viability ([5]; first compound 0.01 µM) of the same compound?
Answer: The relative viability was 0.311.

Question: And the relative viability ([5]; first compound 0.03162 µM)?
Answer: The relative viability was 0.369.

Question: And the relative viability ([5]; first compound 0.1 µM)?
Answer: Its relative viability is 0.346.

Question: What about the relative viability ([5]; first compound 0.3162 µM) of the same compound?
Answer: Its relative viability is 0.376.

Question: What about the relative viability ([5]; first compound 1 µM) of the same compound?
Answer: The relative viability was 0.284.

Question: What about the relative viability ([6]; first compound 0.01 µM) of the same compound?
Answer: The relative viability was 0.752.

Question: What about the relative viability ([6]; first compound 0.03162 µM) of the same compound?
Answer: The relative viability was 0.871.

Question: What about the relative viability ([6]; first compound 0.1 µM) of the same compound?
Answer: Its relative viability is 0.871.

Question: And the relative viability ([6]; first compound 0.3162 µM)?
Answer: The relative viability was 1.09.

Question: And the relative viability ([6]; first compound 1 µM)?
Answer: Its relative viability is 0.717.

Question: And the relative viability ([7]; first compound 0.01 µM)?
Answer: The relative viability was 0.625.

Question: And the relative viability ([7]; first compound 0.03162 µM)?
Answer: Its relative viability is 0.573.

Question: What about the relative viability ([7]; first compound 0.1 µM) of the same compound?
Answer: The relative viability was 0.748.

Question: And the relative viability ([7]; first compound 0.3162 µM)?
Answer: Its relative viability is 0.651.

Question: What about the relative viability ([7]; first compound 1 µM) of the same compound?
Answer: The relative viability was 0.548.

Question: What about the relative viability ([8]; first compound 0.01 µM) of the same compound?
Answer: Its relative viability is 0.441.

Question: And the relative viability ([8]; first compound 0.03162 µM)?
Answer: Its relative viability is 0.528.

Question: And the relative viability ([8]; first compound 0.1 µM)?
Answer: The relative viability was 0.583.

Question: What about the relative viability ([8]; first compound 0.3162 µM) of the same compound?
Answer: The relative viability was 0.591.

Question: And the relative viability ([8]; first compound 1 µM)?
Answer: Its relative viability is 0.435.

Question: What about the relative viability ([9]; first compound 0.01 µM) of the same compound?
Answer: Its relative viability is 0.505.

Question: What about the relative viability ([9]; first compound 0.03162 µM) of the same compound?
Answer: Its relative viability is 0.591.

Question: What about the relative viability ([9]; first compound 0.1 µM) of the same compound?
Answer: Its relative viability is 0.645.

Question: What about the relative viability ([9]; first compound 0.3162 µM) of the same compound?
Answer: Its relative viability is 0.584.

Question: And the relative viability ([9]; first compound 1 µM)?
Answer: The relative viability was 0.412.

Question: And the relative viability ([10]; first compound 0.03162 µM)?
Answer: The relative viability was 1.

Question: And the relative viability ([10]; first compound 0.1 µM)?
Answer: Its relative viability is 0.938.

Question: What about the relative viability ([10]; first compound 0.3162 µM) of the same compound?
Answer: Its relative viability is 0.948.

Question: What about the relative viability ([10]; first compound 1 µM) of the same compound?
Answer: The relative viability was 0.876.

Question: And the relative viability ([11]; first compound 0.01 µM)?
Answer: The relative viability was 0.24.

Question: And the relative viability ([11]; first compound 0.03162 µM)?
Answer: The relative viability was 0.243.

Question: And the relative viability ([11]; first compound 0.1 µM)?
Answer: The relative viability was 0.256.

Question: What about the relative viability ([11]; first compound 0.3162 µM) of the same compound?
Answer: The relative viability was 0.242.

Question: And the relative viability ([11]; first compound 1 µM)?
Answer: Its relative viability is 0.266.

Question: What about the relative viability ([12]; first compound 0.01 µM) of the same compound?
Answer: The relative viability was 0.8.

Question: What about the relative viability ([12]; first compound 0.03162 µM) of the same compound?
Answer: Its relative viability is 0.685.

Question: What about the relative viability ([12]; first compound 0.1 µM) of the same compound?
Answer: The relative viability was 0.743.

Question: What about the relative viability ([12]; first compound 0.3162 µM) of the same compound?
Answer: The relative viability was 0.735.

Question: What about the relative viability ([12]; first compound 1 µM) of the same compound?
Answer: Its relative viability is 0.598.

Question: And the relative viability ([13]; first compound 0.01 µM)?
Answer: Its relative viability is 0.522.

Question: And the relative viability ([13]; first compound 0.03162 µM)?
Answer: The relative viability was 0.552.

Question: And the relative viability ([13]; first compound 0.1 µM)?
Answer: The relative viability was 0.536.

Question: And the relative viability ([13]; first compound 0.3162 µM)?
Answer: Its relative viability is 0.489.

Question: And the relative viability ([13]; first compound 1 µM)?
Answer: Its relative viability is 0.479.

Question: What about the relative viability ([14]; first compound 0.01 µM) of the same compound?
Answer: The relative viability was 0.297.

Question: And the relative viability ([14]; first compound 0.03162 µM)?
Answer: The relative viability was 0.307.

Question: What about the relative viability ([14]; first compound 0.1 µM) of the same compound?
Answer: Its relative viability is 0.292.

Question: What about the relative viability ([14]; first compound 0.3162 µM) of the same compound?
Answer: Its relative viability is 0.355.

Question: What about the relative viability ([14]; first compound 1 µM) of the same compound?
Answer: Its relative viability is 0.326.

Question: What about the relative viability ([15]; first compound 0.01 µM) of the same compound?
Answer: The relative viability was 0.628.

Question: And the relative viability ([15]; first compound 0.03162 µM)?
Answer: Its relative viability is 0.608.

Question: What about the relative viability ([15]; first compound 0.1 µM) of the same compound?
Answer: The relative viability was 0.59.

Question: And the relative viability ([15]; first compound 0.3162 µM)?
Answer: Its relative viability is 0.705.

Question: What about the relative viability ([15]; first compound 1 µM) of the same compound?
Answer: Its relative viability is 0.448.

Question: What about the relative viability ([16]; first compound 0.01 µM) of the same compound?
Answer: Its relative viability is 0.316.

Question: And the relative viability ([16]; first compound 0.03162 µM)?
Answer: The relative viability was 0.378.

Question: And the relative viability ([16]; first compound 0.1 µM)?
Answer: The relative viability was 0.368.

Question: And the relative viability ([16]; first compound 0.3162 µM)?
Answer: The relative viability was 0.41.

Question: And the relative viability ([16]; first compound 1 µM)?
Answer: The relative viability was 0.319.

Question: And the relative viability ([17]; first compound 0.01 µM)?
Answer: Its relative viability is 0.591.

Question: And the relative viability ([17]; first compound 0.03162 µM)?
Answer: Its relative viability is 0.777.

Question: What about the relative viability ([17]; first compound 0.1 µM) of the same compound?
Answer: Its relative viability is 0.692.

Question: What about the relative viability ([17]; first compound 0.3162 µM) of the same compound?
Answer: Its relative viability is 0.786.

Question: And the relative viability ([17]; first compound 1 µM)?
Answer: Its relative viability is 0.669.

Question: And the relative viability ([18]; first compound 0.01 µM)?
Answer: Its relative viability is 0.625.

Question: And the relative viability ([18]; first compound 0.03162 µM)?
Answer: The relative viability was 0.557.

Question: What about the relative viability ([18]; first compound 0.1 µM) of the same compound?
Answer: Its relative viability is 0.636.

Question: And the relative viability ([18]; first compound 0.3162 µM)?
Answer: Its relative viability is 0.649.

Question: And the relative viability ([18]; first compound 1 µM)?
Answer: The relative viability was 0.317.

Question: What about the relative viability ([19]; first compound 0.01 µM) of the same compound?
Answer: Its relative viability is 0.775.

Question: And the relative viability ([19]; first compound 0.03162 µM)?
Answer: Its relative viability is 0.782.

Question: And the relative viability ([19]; first compound 0.1 µM)?
Answer: The relative viability was 0.758.

Question: And the relative viability ([19]; first compound 0.3162 µM)?
Answer: Its relative viability is 0.809.

Question: What about the relative viability ([19]; first compound 1 µM) of the same compound?
Answer: The relative viability was 0.602.

Question: And the relative viability ([20]; first compound 0.01 µM)?
Answer: Its relative viability is 0.72.

Question: What about the relative viability ([20]; first compound 0.03162 µM) of the same compound?
Answer: The relative viability was 0.715.

Question: And the relative viability ([20]; first compound 0.1 µM)?
Answer: Its relative viability is 0.712.

Question: What about the relative viability ([20]; first compound 0.3162 µM) of the same compound?
Answer: The relative viability was 0.756.

Question: And the relative viability ([20]; first compound 1 µM)?
Answer: The relative viability was 0.685.
